Measured values taken from patent publication US20240391862A1, “(1,4,5-TRISUBSTITUTED-1H-PYRAZOL-3-YL)OXY-2-ALKOXY ALKYL ACIDS AND THEIR DERIVATIVES, THEIR SALTS AND THEIR USE AS HERBICIDAL AGENTS” (Bayer AKtiengesellschaft, priority 2021, published 2024).

Key:
Experiment in all cases: Post-emergence herbicidal effect, greenhouse pot test
MATIN = type: in vivo, Tripleurospermum inodorum
Summary of the method: (§1)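 Sandy loam pots, greenhouse. One-leaf stage (2–3 wk after sowing) foliar spray; WP/EC in water + 0.5% additive, 600 l/ha; 20–320 g/ha. Visual score ~3 wk, 0–100% vs untreated.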

AVEFA = type: in vivo, Avena fatua; conditions: visual rating about 3 weeks after treatment
Summary of the method: as §1

SETVI = type: in vivo, Setaria viridis
Summary of the method: as §1

ALOMY = type: in vivo, Alopecurus myosuroides
Summary of the method: as §1

VERPE = type: in vivo, Veronica persica
Summary of the method: as §1

KCHSC = type: in vivo
Procedure: (§2) Seeds of monocotyledonous and dicotyledonous weeds and crop plants are placed in sandy loam in plastic or organic planting pots, covered with soil and cultivated in a greenhouse under controlled growth conditions. 2 to 3 weeks after sowing, the trial plants are treated at the one-leaf stage. The compounds of the invention, formulated in the form of wettable powders (WP) or as emulsion concentrates (EC), are then sprayed onto the green parts of the plants as aqueous suspension or emulsion with addition of 0.5% additive at a water application rate of 600 l/ha (converted). After the test plants have been kept in the greenhouse under optimum growth conditions for about 3 weeks, the activity of the preparations is rated visually in comparison to untreated controls. For example, 100% activity=the plants have died, 0% activity=like control plants. Tables 20a to 38c below show the effects/crop compatibilities of selected compounds of the general formula (I) on various harmful plants at an application rate corresponding to 20 to 320 g/ha, which were obtained by the trial procedure specified above.

VIOTR = type: in vivo, Viola tricolor
Summary of the method: as §1

POLCO = type: in vivo, Fallopia convolvulus
Summary of the method: as §1

DIGSA = type: in vivo, Digitaria sanguinalis; conditions: 320 g/ha, visual rating about 3 weeks after treatment
Summary of the method: as §1

ABUTH = type: in vivo, Abutilon theophrasti; conditions: visual rating about 3 weeks after treatment
Summary of the method: as §1

LOLRI = type: in vivo, Lolium rigidum
Description: • ALOMY: Alopecurus myosuroides SETVI: Setaria viridis • AVEFA: Avena fatua POLCO: Fallopia convolvulus • AMARE: Amaranthus retroflexus ECHCG: Echinochloa crus-galli • LOLRJ: Lolium rigidum STEME: Stellaria media • VERPE: Veronica persica MATIN: Tripleurospermum inodorum • DIGSA: Digitaria sanguinalis ABUTH: Abutylon threophrasti • TRZAS: Triticum aestivum VIOTR: Viola tricolor • BRSNW: Brassica napus ZEAMX: Zea mays • PHBPU: Ipomoea purpurea GLXMA: Glycine max • ORYSA: Oryza sativa HORMU: Hordeum murinum
as §2, with “plants.” for “plants. Tables 20a to 38c below show the effects/crop compatibilities of selected compounds of the general formula (I) on various harmful plants at an application rate corresponding to 20 to 320 g/ha, which were obtained by the trial procedure specified above.”
Tables 20a to 38c below show the effects/crop compatibilities of selected compounds of the general formula (I) on various harmful plants at an application rate corresponding to 20 to 320 g/ha, which were obtained by the trial procedure specified above.

ECHCG = type: in vivo, Echinochloa crus-galli
Summary of the method: as §1

PHBPU = type: in vivo, Ipomoea purpurea
Summary of the method: as §1

AMARE = type: in vivo, Amaranthus retroflexus; conditions: Amaranthus retroflexus, 504 h, 320 g/ha, visual rating about 3 weeks after treatment, read-out: Post-emergence effect against AMARE
Summary of the method: as §1

[1] = 320 g/ha, visual rating about 3 weeks after treatment
[2] = 504 h, 320 g/ha, read-out: Post-emergence effect against KCHSC in %
[3] = Viola tricolor, 504 h, read-out: Post-emergence effect against VIOTR in %
[4] = 20 g/ha, visual rating about 3 weeks after treatment
[5] = Tripleurospermum inodorum, 504 h, 80 g/ha, read-out: Post-emergence effect against MATIN in %
[6] = Setaria viridis, 504 h, 80 g/ha, read-out: Post-emergence effect against SETVI in %
[7] = Ipomoea purpurea, 504 h, 20 g/ha, read-out: Post-emergence effect against PHBPU in %

COC(=O)C(OC)Oc1nn(-c2cc(F)ccc2F)c(-c2cncc(F)c2)c1C1CC1 (centres unmarked) [Example I-112]
Post-emergence effect against MATIN in % (MATIN; 20 g/ha): 80%
Post-emergence effect against MATIN in % (MATIN; 80 g/ha): 80%
Post-emergence effect against MATIN in % (MATIN; 320 g/ha): 80%
Post-emergence effect against AVEFA (AVEFA; 80 g/ha): 90%
Post-emergence effect against AVEFA (AVEFA; 320 g/ha): 90%
pest or weed control at 20 g/ha (AVEFA; Avena fatua, 504 h, 20 g/ha, read-out: Post-emergence effect against AVEFA): 90%
Post-emergence effect against SETVI in % (SETVI; 80 g/ha): 80%
Post-emergence effect against SETVI in % (SETVI; 320 g/ha): 80%
Post-emergence effect at 20 g/ha against ALOMY in % (ALOMY; 20 g/ha, one-leaf stage, rated visually after about 3 weeks vs untreated controls): 80%
Post-emergence effect against ALOMY (ALOMY; 80 g/ha, visual rating about 3 weeks after treatment): 90%
Post-emergence effect against ALOMY (ALOMY; [1]): 90%
Post-emergence effect against VERPE in % (VERPE; 20 g/ha): 80%
Post-emergence effect against VERPE in % (VERPE; 80 g/ha): 80%
Post-emergence effect against VERPE in % (VERPE; 320 g/ha): 80%
pest or weed control at 320 g/ha (KCHSC; [2]): 80%
Post-emergence effect against VIOTR in % (VIOTR; 80 g/ha): 80%
Post-emergence effect against VIOTR in % (VIOTR; 320 g/ha): 80%
pest or weed control at 20 g/ha (VIOTR; [3]): 80%
Post-emergence effect against POLCO in % (POLCO; 80 g/ha): 80%
Post-emergence effect against POLCO in % (POLCO; 320 g/ha): 80%
Post-emergence effect against DIGSA (DIGSA): 80%
Post-emergence effect against ABUTH (ABUTH; 80 g/ha): 80%
Post-emergence effect against ABUTH (ABUTH; 320 g/ha): 80%
pest or weed control at 20 g/ha (ABUTH; Abutilon theophrasti, 504 h, 20 g/ha, read-out: Post-emergence effect against ABUTH): 80%
Post-emergence effect against LOLRI in % (LOLRI; 80 g/ha): 90%
Post-emergence effect against LOLRI in % (LOLRI; 320 g/ha): 90%
Post-emergence effect against ECHCG (ECHCG; [4]): 90%
Post-emergence effect against ECHCG in % (ECHCG; 80 g/ha): 90%
Post-emergence effect against ECHCG in % (ECHCG; 320 g/ha): 90%
Post-emergence effect against PHBPU in % (PHBPU; 20 g/ha): 90%
Post-emergence effect against PHBPU in % (PHBPU; 80 g/ha): 90%
Post-emergence effect against PHBPU in % (PHBPU; 320 g/ha): 90%

COC(Oc1nn(-c2cc(F)ccc2F)c(-c2cncc(F)c2)c1C1CC1)C(=O)O (centres unmarked) [Example I-110]
Post-emergence effect against MATIN in % (MATIN; 320 g/ha): 80%
pest or weed control at 80 g/ha (MATIN; [5]): 80%
Post-emergence effect against AVEFA (AVEFA; 80 g/ha): 90%
Post-emergence effect against AVEFA (AVEFA; 320 g/ha): 90%
Post-emergence effect against SETVI in % (SETVI; 320 g/ha): 80%
pest or weed control at 80 g/ha (SETVI; [6]): 80%
Post-emergence effect against ALOMY (ALOMY; [1]): 100%
pest or weed control at 80 g/ha (ALOMY; Alopecurus myosuroides, 504 h, 80 g/ha, visual rating about 3 weeks after treatment, read-out: Post-emergence effect against ALOMY): 80%
Post-emergence effect against VERPE in % (VERPE; 20 g/ha): 80%
Post-emergence effect against VERPE in % (VERPE; 80 g/ha): 80%
Post-emergence effect against VERPE in % (VERPE; 320 g/ha): 90%
Post-emergence effect against KCHSC in % (KCHSC; 320 g/ha): 80%
Post-emergence effect against VIOTR in % (VIOTR; 80 g/ha): 80%
Post-emergence effect against VIOTR in % (VIOTR; 320 g/ha): 80%
pest or weed control at 20 g/ha (VIOTR; [3]): 80%
Post-emergence effect against POLCO in % (POLCO; 80 g/ha): 80%
Post-emergence effect against POLCO in % (POLCO; 320 g/ha): 90%
pest or weed control at 20 g/ha (POLCO; Fallopia convolvulus, 504 h, 20 g/ha, read-out: Post-emergence effect against POLCO in %): 80%
pest or weed control at 320 g/ha (AMARE): 80%
Post-emergence effect against ABUTH (ABUTH; 20 g/ha): 80%
Post-emergence effect against ABUTH (ABUTH; 80 g/ha): 90%
Post-emergence effect against ABUTH (ABUTH; 320 g/ha): 90%
Post-emergence effect against LOLRI in % (LOLRI; 320 g/ha): 90%
Post-emergence effect against ECHCG (ECHCG; [4]): 90%
Post-emergence effect against ECHCG in % (ECHCG; 80 g/ha): 90%
Post-emergence effect against ECHCG in % (ECHCG; 320 g/ha): 90%
Post-emergence effect against PHBPU in % (PHBPU; 80 g/ha): 90%
Post-emergence effect against PHBPU in % (PHBPU; 320 g/ha): 90%
pest or weed control at 20 g/ha (PHBPU; [7]): 90%

COC(=O)C(OC)Oc1nn(-c2ncccc2F)c(-c2cncc(F)c2)c1Br (centres unmarked) [Example I-91]
pest or weed control at 80 g/ha (MATIN; [5]): 80%
pest or weed control at 320 g/ha (MATIN; Tripleurospermum inodorum, 504 h, 320 g/ha, read-out: Post-emergence effect against MATIN in %): 80%
pest or weed control at 80 g/ha (AVEFA; Avena fatua, 504 h, 80 g/ha, read-out: Post-emergence effect against AVEFA): 90%
pest or weed control at 320 g/ha (AVEFA; Avena fatua, 504 h, 320 g/ha, read-out: Post-emergence effect against AVEFA): 90%
pest or weed control at 20 g/ha (SETVI; Setaria viridis, 504 h, 20 g/ha, read-out: Post-emergence effect against SETVI in %): 80%
pest or weed control at 80 g/ha (SETVI; [6]): 80%
pest or weed control at 320 g/ha (SETVI; Setaria viridis, 504 h, 320 g/ha, read-out: Post-emergence effect against SETVI in %): 80%
pest or weed control at 320 g/ha (ALOMY; Alopecurus myosuroides, 504 h, 320 g/ha, visual rating about 3 weeks after treatment, read-out: Post-emergence effect against ALOMY): 80%
pest or weed control at 80 g/ha (VERPE; Veronica persica, 504 h, 80 g/ha, read-out: Post-emergence effect against VERPE in %): 80%
pest or weed control at 320 g/ha (VERPE; Veronica persica, 504 h, 320 g/ha, read-out: Post-emergence effect against VERPE in %): 80%
pest or weed control at 20 g/ha (KCHSC; 504 h, 20 g/ha, read-out: Post-emergence effect against KCHSC in %): 80%
pest or weed control at 80 g/ha (KCHSC; 504 h, 80 g/ha, read-out: Post-emergence effect against KCHSC in %): 80%
pest or weed control at 320 g/ha (KCHSC; [2]): 90%
pest or weed control at 20 g/ha (VIOTR; [3]): 80%
pest or weed control at 80 g/ha (VIOTR; Viola tricolor, 504 h, 80 g/ha, read-out: Post-emergence effect against VIOTR in %): 80%
pest or weed control at 320 g/ha (VIOTR; Viola tricolor, 504 h, 320 g/ha, read-out: Post-emergence effect against VIOTR in %): 80%
pest or weed control at 320 g/ha (POLCO; Fallopia convolvulus, 504 h, 320 g/ha, read-out: Post-emergence effect against POLCO in %): 80%
pest or weed control at 320 g/ha (DIGSA; Digitaria sanguinalis, 504 h, read-out: Post-emergence effect against DIGSA): 90%
pest or weed control at 80 g/ha (ABUTH; Abutilon theophrasti, 504 h, 80 g/ha, read-out: Post-emergence effect against ABUTH): 80%
pest or weed control at 320 g/ha (ABUTH; Abutilon theophrasti, 504 h, 320 g/ha, read-out: Post-emergence effect against ABUTH): 80%
pest or weed control at 80 g/ha (LOLRI; Lolium rigidum, 504 h, 80 g/ha, read-out: Post-emergence effect against LOLRI in %): 90%
pest or weed control at 320 g/ha (LOLRI; Lolium rigidum, 504 h, 320 g/ha, read-out: Post-emergence effect against LOLRI in %): 90%
pest or weed control at 20 g/ha (ECHCG; Echinochloa crus-galli, 504 h, 20 g/ha, visual rating about 3 weeks after treatment, read-out: Post-emergence effect against ECHCG): 80%
pest or weed control at 80 g/ha (ECHCG; Echinochloa crus-galli, 504 h, 80 g/ha, read-out: Post-emergence effect against ECHCG in %): 80%
pest or weed control at 320 g/ha (ECHCG; Echinochloa crus-galli, 504 h, 320 g/ha, read-out: Post-emergence effect against ECHCG in %): 90%
pest or weed control at 20 g/ha (PHBPU; [7]): 80%
pest or weed control at 80 g/ha (PHBPU; Ipomoea purpurea, 504 h, 80 g/ha, read-out: Post-emergence effect against PHBPU in %): 80%
pest or weed control at 320 g/ha (PHBPU; Ipomoea purpurea, 504 h, 320 g/ha, read-out: Post-emergence effect against PHBPU in %): 80%
